Results taken from US20250025447A1, “TOLL-LIKE RECEPTOR AGONISTS AND ANTAGONISTS AND USES THEREOF” (Regents of the University of Minnesota, priority 2021, published 2025).
“Also recorded” adds a separate entry of the source. Like-named read-outs stand apart in the source and are kept apart here.

How the values were obtained:
[1] = target: T1, human TLR-7 (Homo sapiens, UniProt Q9NYK1); experiment: TLR-7/NF-κB/SEAP reporter assay in HEK293 cells, agonist mode
T1 sequence (Q9NYK1 27-1049): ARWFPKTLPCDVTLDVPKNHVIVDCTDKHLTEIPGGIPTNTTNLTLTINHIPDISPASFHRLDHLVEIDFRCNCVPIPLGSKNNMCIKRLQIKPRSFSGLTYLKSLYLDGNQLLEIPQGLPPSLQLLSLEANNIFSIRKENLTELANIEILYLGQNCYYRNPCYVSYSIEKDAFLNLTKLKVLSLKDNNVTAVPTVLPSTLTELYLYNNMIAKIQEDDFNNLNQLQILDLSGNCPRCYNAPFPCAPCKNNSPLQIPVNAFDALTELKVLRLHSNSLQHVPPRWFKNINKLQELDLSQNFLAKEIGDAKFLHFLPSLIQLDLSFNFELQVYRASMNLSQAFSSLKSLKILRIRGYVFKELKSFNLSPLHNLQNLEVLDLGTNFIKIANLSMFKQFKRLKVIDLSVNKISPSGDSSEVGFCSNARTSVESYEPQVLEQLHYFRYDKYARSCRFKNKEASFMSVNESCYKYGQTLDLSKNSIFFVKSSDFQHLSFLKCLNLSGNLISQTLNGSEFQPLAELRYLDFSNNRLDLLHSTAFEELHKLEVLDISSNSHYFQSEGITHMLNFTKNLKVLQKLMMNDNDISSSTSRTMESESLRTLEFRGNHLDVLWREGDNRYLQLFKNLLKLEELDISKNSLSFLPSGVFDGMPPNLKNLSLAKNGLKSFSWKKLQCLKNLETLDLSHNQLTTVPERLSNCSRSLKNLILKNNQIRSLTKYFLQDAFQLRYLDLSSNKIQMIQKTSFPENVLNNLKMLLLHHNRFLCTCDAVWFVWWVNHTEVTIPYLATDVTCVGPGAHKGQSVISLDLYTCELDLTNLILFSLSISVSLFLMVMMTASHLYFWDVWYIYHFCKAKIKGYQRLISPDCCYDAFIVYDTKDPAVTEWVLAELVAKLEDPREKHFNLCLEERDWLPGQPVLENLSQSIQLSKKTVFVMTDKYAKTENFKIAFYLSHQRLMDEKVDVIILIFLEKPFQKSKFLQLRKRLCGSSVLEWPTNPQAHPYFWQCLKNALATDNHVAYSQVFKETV

[2] = target: T2, human TLR-8 (Homo sapiens, UniProt Q9NR97); experiment: TLR-8 HEK-SEAP reporter competition (antagonist) assay against agonist compound 5; details: agonist compound 5 at different concentrations, FIGS. 1A-D
T2 sequence (Q9NR97 27-1041): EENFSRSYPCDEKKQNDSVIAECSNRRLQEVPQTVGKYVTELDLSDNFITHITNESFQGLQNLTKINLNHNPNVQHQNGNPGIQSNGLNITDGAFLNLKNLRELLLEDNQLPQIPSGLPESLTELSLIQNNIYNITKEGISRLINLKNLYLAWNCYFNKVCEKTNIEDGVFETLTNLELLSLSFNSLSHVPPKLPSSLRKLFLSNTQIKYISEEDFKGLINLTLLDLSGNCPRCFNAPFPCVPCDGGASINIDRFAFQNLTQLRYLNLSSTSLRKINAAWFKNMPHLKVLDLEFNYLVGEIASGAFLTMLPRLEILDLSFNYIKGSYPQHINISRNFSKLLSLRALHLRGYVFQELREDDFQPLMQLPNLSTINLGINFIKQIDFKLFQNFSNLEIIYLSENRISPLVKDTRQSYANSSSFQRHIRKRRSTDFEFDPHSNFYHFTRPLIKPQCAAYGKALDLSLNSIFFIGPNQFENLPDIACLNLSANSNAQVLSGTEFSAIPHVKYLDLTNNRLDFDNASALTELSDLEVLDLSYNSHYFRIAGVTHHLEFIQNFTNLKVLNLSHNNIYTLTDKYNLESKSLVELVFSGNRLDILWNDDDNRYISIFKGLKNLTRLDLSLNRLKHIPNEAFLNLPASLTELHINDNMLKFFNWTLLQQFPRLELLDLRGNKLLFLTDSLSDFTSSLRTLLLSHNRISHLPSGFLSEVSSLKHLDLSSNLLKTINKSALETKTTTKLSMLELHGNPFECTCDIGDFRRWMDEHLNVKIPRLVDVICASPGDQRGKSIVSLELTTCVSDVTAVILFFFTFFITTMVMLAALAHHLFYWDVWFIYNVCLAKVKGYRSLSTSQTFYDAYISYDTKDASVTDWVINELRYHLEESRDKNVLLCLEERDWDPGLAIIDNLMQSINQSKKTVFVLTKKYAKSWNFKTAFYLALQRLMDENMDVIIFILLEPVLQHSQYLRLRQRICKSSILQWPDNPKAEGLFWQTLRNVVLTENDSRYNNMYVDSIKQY

[3] = target: T2, human TLR-8; experiment: TLR-8/NF-κB/SEAP reporter assay in HEK293 cells, agonist mode; details: HEK-SEAP reporter cells
[4] = target: T1, human TLR-7; experiment: TLR-7 HEK-SEAP reporter competition (antagonist) assay against agonist compound 5; details: for TLR-7 antagonist activity against compound 5 (in words): agonist compound 5 at different concentrations, FIGS. 1A-D; for IC50: read-out: TLR-7 reporter cell activity, IC50 of antagonists, relative IC50 at fixed concentration of compound 5, 3 μM
[5] = test system: TNFα, IFNγ and IL-1β production in hPBMCs; experiment: Competition assay of agonist-induced cytokine induction in hPBMCs (ELISA); type: cell-based, human
Description: Preparation and stimulation of PBMC. Human PBMC can be isolated from heparinized blood by standard density-gradient centrifugation over Ficoll-Paque Plus (Pharmacia, Uppsala, Sweden). Briefly, peripheral blood can be drawn by venipuncture into green top heparin tubes. The blood can be diluted 1:1 with PBS, and then layered upon Ficoll-Paque Plus in 50 ml centrifuge tubes. The tubes can be spun at 2000 rpm for 20 min, after which the buffy coats can be collected and washed twice in PBS. The isolated PBMC can be counted and added to the wells of a 24-well plate (5×10^5 cells/1 ml/well) in RPMI 1640 supplemented with 10% FBS, penicillin, streptomycin, sodium pyruvate, nonessential amino acids, and HEPES. TLR agonist 5 and TLR antagonist 3 can be prepared in DMSO and added to the wells (in triplicate) to reach the desired final concentrations. Some wells may only contain DMSO. After 24 h, culture supernatants can be collected, aliquoted, and frozen at −80° C. until analysis.
Quantitation of IL-1p, IFNγ, and TNFα. The amount of cytokines present in the supernatants after stimulation can be determined via Enzyme-Linked Immunosorbent Assay (ELISA) using a BioLegend ELISA MAX Deluxe Set for each cytokine tested. The assays can be conducted following the protocols provided by the assay set. Cell culture supernatants from hPBMCs can be used directly without dilution for the determination of IFNγ and TNFα but can be diluted accordingly for the IL-1β so the observed cytokine level could fall into the linear range of the assay.
These cytokines can be of particular interest due to the role they play in the driving Th1 differentiation of immune cells and development of cellular immunity.

## COC(=O)c1ccc2c(c1)nc(N)c1nc(CC(C)C)n(CC(C)O)c12 (stereo not drawn) [Compound 1, methyl 4-amino-1-(2-hydroxypropyl)-2-isobutyl-1H-imidazo[4,5-c]quinoline-7-carboxylate]
[1]; HEK-SEAP reporter cells
  TLR-7 agonist activity (in words): showed agonist activity
[1]; read-out: TLR-7 reporter cell activity, EC50, HEK-SEAP reporter cells, agonist
  EC50: 29.4 ± 2.2 µM
[2]
  TLR-8 antagonist activity against compound 5 (in words): reduction of TLR-8 activity

## COC(=O)c1ccc2c(c1)nc(N)c1nc(CC3CC3)n(CC(C)O)c12 (stereo not drawn) [Compound 2, methyl 4-amino-2-(cyclopropylmethyl)-1-(2-hydroxypropyl)-1H-imidazo[4,5-c]quinoline-7-carboxylate]
[1]
  EC50: 13.4 ± 1.5 µM
[1]; HEK-SEAP reporter cells
  TLR-7 agonist activity (in words): showed agonist activity
[3]
  TLR-8 agonist activity (in words): showed agonist activity
[3]; read-out: TLR-8 reporter cell activity, EC50, agonist
  EC50: 18.8 ± 3.4 µM

## COC(=O)c1ccc2c(c1)nc(N)c1nc(CC(C)C)n(Cc3ccc(CN)cc3)c12 [Compound 3, methyl 4-amino-1-(4-(aminomethyl)benzyl)-2-isobutyl-1H-imidazo[4,5-c]quinoline-7-carboxylate]
[4]
  TLR-7 antagonist activity against compound 5 (in words): concentration-dependent shifts; also recorded: low μM antagonists
  IC50: 3.91 ± 0.15 µM
[5]; agonist 5 induced, FIG. 4A
  inhibition of TNFα production: concentration-dependent reduction; also recorded: potent inhibitor
[5]; agonist 5 induced, FIG. 4B
  inhibition of IFNγ production: concentration-dependent reduction; also recorded: potent inhibitor
[5]; agonist 5 induced, FIG. 4C
  inhibition of IL-1β production: concentration-dependent reduction; also recorded: potent inhibitor
[5]; compound itself
  stimulatory activity in hPBMCs: devoid of stimulatory activity

## COC(=O)c1ccc2c(c1)nc(N)c1nc(CC3CC3)n(Cc3ccc(CN)cc3)c12 [Compound 4, methyl 4-amino-1-(4-(aminomethyl)benzyl)-2-(cyclopropylmethyl)-1H-imidazo[4,5-c]quinoline-7-carboxylate]
[4]
  TLR-7 antagonist activity against compound 5 (in words): concentration-dependent shifts; also recorded: low μM antagonists
  IC50: 4.1 ± 0.2 µM
